Columns and labels:
[1] = test system: recombinant NL4-3 virus (nef section replaced with Renilla luciferase gene) in MT-2 cells; test: HIV cell culture assay (antiviral activity, luciferase readout); type: cell-based; details: Renilla, NL43, MT-2 cells infected for 4-5 days with recombinant NL4-3 Renilla luciferase virus
Outline: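 Compound activity was measured as reduction of luciferase in MT-2 cells infected for 4-5 days with serially diluted compound present. EC50 values were calculated with the median effect equation.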

[2] = Compound cytotoxicity, XTT-based colorimetric assay; type: cell-based; details: human; uninfected MT2 cells, day 4, XTT; read-out: CC50
Outline: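 Follows the antiviral assay procedure, but with uninfected MT2 cells. On day 4, cell viability is measured by XTT-based colorimetry, giving CC50 values.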

Structure (SMILES) | EC50 [1] [nM] | CC50 at 4 days [2] [nM]
CS(=O)(=O)Nc1nn(CCN2CC(F)(F)C2)c2c(-n3c([C@H](Cc4cc(F)cc(F)c4)NC(=O)Cn4nc(C(F)F)c5c4C(F)(F)[C@@H]4C[C@H]54)nc4nc(C5CCC(F)(F)CC5)cc(C(F)F)c4c3=O)ccc(Cl)c12 (atropisomer, axis not shown; (P)) [Example 307, N-[(1S)-1-[(3P)-3-{4-chloro-1-[2-(3,3-difluoroazetidin-1-yl)ethyl]-3-methanesulfonamido-1H-indazol-7-yl}-7-(4,4-difluorocyclohexyl)-5-(difluoromethyl)-4-oxo-3H,4H-pyrido[2,3-d]pyrimidin-2-yl]-2-(3,5-difluorophenyl)ethyl]-2-[(2S,4R)-9-(difluoromethyl)-5,5-difluoro-7,8-diazatricyclo[4.3.0.0^2,^4]nona-1(6),8-dien-7-yl]acetamide] | 0.023 | > 50
Cc1cc(C2(C)CCC(F)(F)CC2)nc2nc([C@H](Cc3cc(F)cc(F)c3)NC(=O)Cn3nc(C(F)F)c4c3C(F)(F)[C@@H]3C[C@H]43)n(-c3ccc(Cl)c4c(NS(C)(=O)=O)nn(CCN5C[C@@H](C)O[C@@H](C)C5)c34)c(=O)c12 (atropisomer, axis not shown; (P)) [Example 505, N-[(1S)-1-[(3P)-3-(4-chloro-1-{2-[(2R,6S)-2,6-dimethylmorpholin-4-yl]ethyl}-3-methanesulfonamido-1H-indazol-7-yl)-7-(4,4-difluoro-1-methylcyclohexyl)-5-methyl-4-oxo-3H,4H-pyrido[2,3-d]pyrimidin-2-yl]-2-(3,5-difluorophenyl)ethyl]-2-[(2S,4R)-9-(difluoromethyl)-5,5-difluoro-7,8-diazatricyclo[4.3.0.0^2,^4]nona-1(6),8-dien-7-yl]acetamide] | 0.013 | > 20
CS(=O)(=O)Nc1nn(CCN2CC[C@H](F)C2)c2c(-n3c([C@H](Cc4cc(F)cc(F)c4)NC(=O)Cn4nc(C(F)F)c5c4C(F)(F)[C@@H]4C[C@H]54)nc4nc(C5CCC(F)(F)CC5)ccc4c3=O)ccc(Cl)c12 (atropisomer, axis not shown; (P)) [Example 207, N-[(1S)-1-[(3P)-3-(4-chloro-1-{2-[(3S)-3-fluoropyrrolidin-1-yl]ethyl}-3-methanesulfonamido-1H-indazol-7-yl)-7-(4,4-difluorocyclohexyl)-4-oxo-3H,4H-pyrido[2,3-d]pyrimidin-2-yl]-2-(3,5-difluorophenyl)ethyl]-2-[(2S,4R)-9-(difluoromethyl)-5,5-difluoro-7,8-diazatricyclo[4.3.0.0^2,^4]nona-1(6),8-dien-7-yl]acetamide] | 0.013 | > 50
COCCCn1nc(NS(C)(=O)=O)c2c(Cl)ccc(-n3c([C@H](Cc4cc(F)cc(F)c4)NC(=O)Cn4nc(C(F)F)c5c4C(F)(F)[C@@H]4C[C@H]54)nc4nc(C5CCC(F)(F)CC5)cc(NCC5(C)CCOCC5)c4c3=O)c21 (atropisomer, axis not shown; (P)) [Example 485, N-[(1S)-1-[(3P)-3-[4-chloro-3-methanesulfonamido-1-(3-methoxypropyl)-1H-indazol-7-yl]-7-(4,4-difluorocyclohexyl)-5-{[(4-methyloxan-4-yl)methyl]amino}-4-oxo-3H,4H-pyrido[2,3-d]pyrimidin-2-yl]-2-(3,5-difluorophenyl)ethyl]-2-[(2S,4R)-9-(difluoromethyl)-5,5-difluoro-7,8-diazatricyclo[4.3.0.0^2,^4]nona-1(6),8-dien-7-yl]acetamide] | 0.016 | > 20
Cc1cc(C2CCC(F)(F)CC2)nc2nc([C@H](Cc3cc(F)cc(F)c3)NC(=O)Cn3nc(C4CC4)c4c3C[C@@H]3C[C@H]43)n(-c3ccc(Cl)c4c(NS(C)(=O)=O)nn(CCN5CCCC(F)(F)C5)c34)c(=O)c12 (atropisomer, axis not shown; (P)) [Example 2, N-[(1S)-1-[(3P)-3-{4-chloro-1-[2-(3,3-difluoropiperidin-1-yl)ethyl]-3-methanesulfonamido-1H-indazol-7-yl}-7-(4,4-difluorocyclohexyl)-5-methyl-4-oxo-3H,4H-pyrido[2,3-d]pyrimidin-2-yl]-2-(3,5-difluorophenyl)ethyl]-2-[(2S,4S)-9-cyclopropyl-7,8-diazatricyclo[4.3.0.0^2,^4]nona-1(6),8-dien-7-yl]acetamide] | 0.008 | > 50
COCCNc1cc(C2CCC(F)(F)CC2)nc2nc([C@H](Cc3cc(F)cc(F)c3)NC(=O)Cn3nc(C(F)F)c4c3C(F)(F)[C@@H]3C[C@H]43)n(-c3ccc(Cl)c4c(NS(C)(=O)=O)nn(CCN5CCC(F)(F)CC5)c34)c(=O)c12 (atropisomer, axis not shown; (P)) [Example 413, N-[(1S)-1-[(3P)-3-{4-chloro-1-[2-(4,4-difluoropiperidin-1-yl)ethyl]-3-methanesulfonamido-1H-indazol-7-yl}-7-(4,4-difluorocyclohexyl)-5-[(2-methoxyethyl)amino]-4-oxo-3H,4H-pyrido[2,3-d]pyrimidin-2-yl]-2-(3,5-difluorophenyl)ethyl]-2-[(2S,4R)-9-(difluoromethyl)-5,5-difluoro-7,8-diazatricyclo[4.3.0.0^2,^4]nona-1(6),8-dien-7-yl]acetamide] | 0.013 | > 20
COCc1cc(C2CCC(F)(F)CC2)nc2nc([C@H](Cc3cc(F)cc(F)c3)NC(=O)Cn3nc(C(F)F)c4c3C(F)(F)[C@@H]3C[C@H]43)n(-c3ccc(Cl)c4c(NS(C)(=O)=O)nn(CCN5CCC(F)(F)CC5)c34)c(=O)c12 (atropisomer, axis not shown; (P)) [Example 676, N-[(1S)-1-[(3P)-3-{4-chloro-1-[2-(4,4-difluoropiperidin-1-yl)ethyl]-3-methanesulfonamido-1H-indazol-7-yl}-7-(4,4-difluorocyclohexyl)-5-(methoxymethyl)-4-oxo-3H,4H-pyrido[2,3-d]pyrimidin-2-yl]-2-(3,5-difluorophenyl)ethyl]-2-[(2S,4R)-9-(difluoromethyl)-5,5-difluoro-7,8-diazatricyclo[4.3.0.0^2,^4]nona-1(6),8-dien-7-yl]acetamide] | 0.011 | > 20
COCCNc1cc(C2CCC(F)(F)CC2)nc2nc([C@H](Cc3cc(F)cc(F)c3)NC(=O)Cn3nc(C(F)F)c4c3C(F)(F)[C@@H]3C[C@H]43)n(-c3ccc(Cl)c4c(NS(C)(=O)=O)nn(CCN5C[C@H]6CC[C@@H](C5)O6)c34)c(=O)c12 (atropisomer, axis not shown; (P)) [Example 420, N-[(1S)-1-[(3P)-3-(4-chloro-3-methanesulfonamido-1-{2-[(1R,5S)-8-oxa-3-azabicyclo[3.2.1]octan-3-yl]ethyl}-1H-indazol-7-yl)-7-(4,4-difluorocyclohexyl)-5-[(2-methoxyethyl)amino]-4-oxo-3H,4H-pyrido[2,3-d]pyrimidin-2-yl]-2-(3,5-difluorophenyl)ethyl]-2-[(2S,4R)-9-(difluoromethyl)-5,5-difluoro-7,8-diazatricyclo[4.3.0.0^2,^4]nona-1(6),8-dien-7-yl]acetamide] | 0.011 | > 20
CC1(F)CCN(CCn2nc(NS(C)(=O)=O)c3c(Cl)ccc(-n4c([C@H](Cc5cc(F)cc(F)c5)NC(=O)Cn5nc(C(F)F)c6c5C(F)(F)[C@@H]5C[C@H]65)nc5nc(C6CCC(F)(F)CC6)ccc5c4=O)c32)C1 (stereo partly drawn) [Example 211, N-[(1S)-1-[(3P)-3-{4-chloro-1-[2-(3-fluoro-3-methylpyrrolidin-1-yl)ethyl]-3-methanesulfonamido-1H-indazol-7-yl}-7-(4,4-difluorocyclohexyl)-4-oxo-3H,4H-pyrido[2,3-d]pyrimidin-2-yl]-2-(3,5-difluorophenyl)ethyl]-2-[(2S,4R)-9-(difluoromethyl)-5,5-difluoro-7,8-diazatricyclo[4.3.0.0^2,^4]nona-1(6),8-dien-7-yl]acetamide] | 0.012 | > 50
Cc1cc(C2CCC(F)(F)CC2)nc2nc([C@H](Cc3cc(F)cc(F)c3)NC(=O)Cn3nc(C4CC4)c4c3C[C@@H]3C[C@H]43)n(-c3ccc(Cl)c4c(NS(C)(=O)=O)nn(CCN5C[C@H]6C[C@@H]5CO6)c34)c(=O)c12 (atropisomer, axis not shown; (P)) [Example 9, N-[(1S)-1-[(3P)-3-(4-chloro-3-methanesulfonamido-1-{2-[(1R,4R)-2-oxa-5-azabicyclo[2.2.1]heptan-5-yl]ethyl}-1H-indazol-7-yl)-7-(4,4-difluorocyclohexyl)-5-methyl-4-oxo-3H,4H-pyrido[2,3-d]pyrimidin-2-yl]-2-(3,5-difluorophenyl)ethyl]-2-[(2S,4S)-9-cyclopropyl-7,8-diazatricyclo[4.3.0.0^2,^4]nona-1(6),8-dien-7-yl]acetamide] | 0.009 | > 50
Cc1cc(C2CCC(F)(F)CC2)nc2nc([C@H](Cc3cc(F)cc(F)c3)NC(=O)Cn3nc(C4CC4)c4c3C[C@@H]3C[C@H]43)n(-c3ccc(Cl)c4c(NS(C)(=O)=O)nn(CCN5CCC(C)(F)C5)c34)c(=O)c12 (stereo partly drawn) [Example 280, N-[(1S)-1-[(3P)-3-{4-chloro-1-[2-(3-fluoro-3-methylpyrrolidin-1-yl)ethyl]-3-methanesulfonamido-1H-indazol-7-yl}-7-(4,4-difluorocyclohexyl)-5-methyl-4-oxo-3H,4H-pyrido[2,3-d]pyrimidin-2-yl]-2-(3,5-difluorophenyl)ethyl]-2-[(2S,4S)-9-cyclopropyl-7,8-diazatricyclo[4.3.0.0^2,^4]nona-1(6),8-dien-7-yl]acetamide] | 0.006 | > 50
